In patent US8580832B2, “Substituted phenoxy aminothiazolones as estrogen related receptor-α modulators” (Janssen Pharmaceutica N.V., priority 2007, dated 2013) one finds EC50 data, which are given here for 22 compounds.

Molecules are shown by their SMILES. Structures can show the parent of a compound that is named as a salt.

The assay deals with T1, ERR1 (also known as ERR-α or ERR-1) (Homo sapiens, UniProt P11474).
T1 construct: the ^6His-tagged-ERR1 LBD
T1 sequence (P11474 193-421 limits assumed): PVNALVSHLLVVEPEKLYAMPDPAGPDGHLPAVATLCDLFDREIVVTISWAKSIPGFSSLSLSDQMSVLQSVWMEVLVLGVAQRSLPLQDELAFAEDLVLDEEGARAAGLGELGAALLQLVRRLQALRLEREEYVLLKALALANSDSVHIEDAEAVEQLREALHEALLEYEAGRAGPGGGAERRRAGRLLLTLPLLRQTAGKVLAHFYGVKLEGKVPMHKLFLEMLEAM
As to the kind of experiment: TR-FRET assay: disruption of co-activator peptide binding to ERR1 LBD. The assay is classed as biochemical. To be noted: 6His-tagged ERR1 LBD 6 nM, GST-SRC-2 peptide 6 nM, 25° C., 4-18 hours; average of 3 independent experiments. As for the experimental part:
Time-Resolved Fluorescence Resonance Energy Transfer (TR-FRET) experiments were performed to examine the functional response of ERR1 (also known as ERR-α or ERR-1) ligands. The TR-FRET assay described herein relied on the conformation of ERR1 for binding to a co-activator peptide: when a test compound binds to ERR1 and alters its conformation, it can disrupt the binding of the co-activator peptide. The components of this homogeneous secondary assay included: the ^6His-tagged-ERR1 LBD, a GST-labeled-hSRC2 co-activator polypeptide and a fluorescent donor/acceptor pair from CIS bio international htrf/bioassays (Bedford, Mass.) using both an α-GST Europium Cryptate (Eu) label and an α^6His-XL665 (allophycocyanin) fluorophore.
For TR-FRET measurements, the reaction was buffered in 25 mM Tris pH 8, 2.5 mM Hepes, 20 mM KCl, 1 mM DTT, and 0.05 mg/mL BSA (-lipids). […] Reactions were allowed to reach equilibrium at 25° C. for 4-18 hours before collecting data on the Analyst from LJL Biosystems (Molecular Devices Sunnyvale, Calif.). […] Dose response curves were fitted using a hyperbolic equation and the data reported is the average of 3 independent experiments.
In general terms: Time-resolved FRET reads energy transfer from a long-lived donor to a nearby acceptor.
The term EC50 denotes the midpoint of the concentration-response curve. A low value points to higher potency in that assay. As to `COc1cc(/C=C2\SC(NCCOCCO)=NC2=O)ccc1Oc1ccc(C#N)cc1C(F)(F)F` [Example 69, 4-(4-{2-[2-(2-Hydroxy-ethoxy)-ethylamino]-4-oxo-4H-thiazol-5-ylidenemethyl}-2-methoxy-phenoxy)-3-trifluoromethyl-benzonitrile], the EC50 came out at 17 nM. This lies in the double-digit nanomolar range.

Consider `COC(=O)c1ccc(Oc2ccc(/C=C3\SC(N4CC(C(=O)O)C4)=NC3=O)cc2OC)c(C(F)(F)F)c1` [Example 52, 1-{5-[3-Methoxy-4-(4-methoxycarbonyl-2-trifluoromethyl-phenoxy)-benzylidene]-4-oxo-4,5-dihydro-thiazol-2-yl}-azetidine-3-carboxylic acid], for which the EC50 came out at 2 nM.

The compound `COc1cc(/C=C2\SC(NCCN)=NC2=O)ccc1Oc1ccc(C#N)cc1C(F)(F)F` [Example 87, 4-{4-[2-(2-Amino-ethylamino)-4-oxo-4H-thiazol-5-ylidenemethyl]-2-methoxy-phenoxy}-3-trifluoromethyl-benzonitrile HCl salt] came in with a half-maximal effective concentration (EC50) of 22 nM. This EC50 is about 11-fold higher than that of the compound before.

Compound `CC1CN(C2=NC(=O)/C(=C/c3ccc(Oc4ccc(C#N)cc4C(F)(F)F)c(F)c3)S2)CC(C)O1` (stereo not shown) [Example 46, 4-{4-[2-(2,6-Dimethyl-morpholin-4-yl)-4-oxo-4H-thiazol-5-ylidenemethyl]-2-fluoro-phenoxy}-3-trifluoromethyl-benzonitrile] showed an EC50 of 19 nM. The EC50 values of the last two compounds are within 1.5-fold of each other.

The compound `COc1cc(/C=C2\SC(N3CCNC(=O)C3)=NC2=O)ccc1Oc1ccc(C#N)cc1C(F)(F)F` [Compound 21, 4-{2-Methoxy-4-[4-oxo-2-(3-oxo-piperazin-1-yl)-4H-thiazol-5-ylidenemethyl]-phenoxy}-3-trifluoromethyl-benzonitrile] showed an EC50 of 9 nM. This EC50 lies about 2.1-fold lower than the previous one.

The compound `N#Cc1ccc(Oc2ccc(/C=C3\SC(N4CCOCC4)=NC3=O)cc2F)c(C(F)(F)F)c1` [Compound 6, 4-[2-Fluoro-4-(2-morpholin-4-yl-4-oxo-4H-thiazol-5-ylidenemethyl)-phenoxy]-3-trifluoromethyl-benzonitrile] had an EC50 of 50 nM. Compared with the last compound, the EC50 is about 5.6-fold higher.

With `COc1cc(/C=C2\SC(NCc3cc(F)cc(F)c3)=NC2=O)ccc1Oc1ccc(C#N)cc1C(F)(F)F` [Example 85, 4-{4-[2-(3,5-Difluoro-benzylamino)-4-oxo-4H-thiazol-5-ylidenemethyl]-2-methoxy-phenoxy}-3-trifluoromethyl-benzonitrile], the EC50 is 57 nM.

In turn, `COc1cc(/C=C2\SC(NCCCN3CCCC3=O)=NC2=O)ccc1Oc1ccc(C#N)cc1C(F)(F)F` [Compound 22, 4-(2-Methoxy-4-{4-oxo-2-[3-(2-oxo-pyrrolidin-1-yl)-propylamino]-4H-thiazol-5-ylidenemethyl}-phenoxy)-3-trifluoromethyl-benzonitrile] yielded an EC50 of 9 nM.

As for `COc1cc(/C=C2\SC(NCCN3CCCC3)=NC2=O)ccc1Oc1ccc(C#N)cc1C(F)(F)F` [Compound 20, 4-{2-Methoxy-4-[4-oxo-2-(2-pyrrolidin-1-yl-ethylamino)-4H-thiazol-5-ylidenemethyl]-phenoxy}-3-trifluoromethyl-benzonitrile], the EC50 stood at 32 nM.

On to `N#Cc1ccc(Oc2ccc(/C=C3\SC(NCCF)=NC3=O)cc2F)c(C(F)(F)F)c1` [Example 96, 4-{2-Fluoro-4-[2-(2-fluoro-ethylamino)-4-oxo-4H-thiazol-5-ylidenemethyl]-2-fluoro-phenoxy}-3-trifluoromethyl-benzonitrile], for which the EC50 worked out at 25 nM.

Consider `N#Cc1ccc(Oc2ccc(/C=C3\SC(NCCCN4CCNC(=O)C4)=NC3=O)cc2F)c(C(F)(F)F)c1` [Example 100, 4-(2-Fluoro-4-{4-oxo-2-[3-(3-oxo-piperazin-1-yl)-propylamino]-4H-thiazol-5-ylidenemethyl}-phenoxy)-3-trifluoromethyl-benzonitrile], for which the EC50 is 31 nM. The EC50 values of the last two compounds are within 1.5-fold of each other.

In the case of `CN1CCN(C2=NC(=O)/C(=C/c3ccc(Oc4ccc(C#N)cc4C(F)(F)F)c(F)c3)S2)CC1` [Compound 8, 4-{2-Fluoro-4-[2-(4-methyl-piperazin-1-yl)-4-oxo-4H-thiazol-5-ylidenemethyl]-phenoxy}-3-trifluoromethyl-benzonitrile], the EC50 worked out at 14 nM. Compared with the last compound, the EC50 is about 2.2-fold lower.

As for `COc1cc(/C=C2\SC(N)=NC2=O)ccc1Oc1ccc(C#N)cc1C(F)(F)F` [Compound 1, 4-[4-(2-Amino-4-oxo-4H-thiazol-5-ylidenemethyl)-2-methoxy-phenoxy]-3-trifluoromethyl-benzonitrile], the EC50 is 12 nM. This EC50 and that of the compound before are within 1.5-fold of each other.

The compound `COc1cc(/C=C2\SC(NC3CCNC3)=NC2=O)ccc1Oc1ccc(C#N)cc1C(F)(F)F` (stereo not shown) [Compound 13, 4-{2-Methoxy-4-[4-oxo-2-(pyrrolidin-3-ylamino)-4H-thiazol-5-ylidenemethyl]-phenoxy}-3-trifluoromethyl-benzonitrile] showed an EC50 of 34 nM. Compared with the last compound, the EC50 is about 2.8-fold higher.

Take `COc1cc(/C=C2\SC(N(C)OC)=NC2=O)ccc1Oc1ccc(C#N)cc1C(F)(F)F` [Example 75, 4-{2-Methoxy-4-[2-(methoxy-methyl-amino)-4-oxo-4H-thiazol-5-ylidenemethyl]-phenoxy}-3-trifluoromethyl-benzonitrile]: the midpoint of the response, the EC50, lay at 32 nM. This EC50 and that of the compound before are within 1.5-fold of each other.

`COc1cc(/C=C2\SC(NCCN3CCCCC3)=NC2=O)ccc1Oc1ccc(C#N)cc1C(F)(F)F` [Compound 25, 4-{2-Methoxy-4-[4-oxo-2-(2-piperidin-1-yl-ethylamino)-4H-thiazol-5-ylidenemethyl]-phenoxy}-3-trifluoromethyl-benzonitrile] registered an EC50 of 18 nM.

As for `COc1cc(/C=C2\SC(N(C)CCN(C)C)=NC2=O)ccc1Oc1ccc(C#N)cc1C(F)(F)F` [Compound 11, 4-(4-{2-[(2-Dimethylamino-ethyl)-methyl-amino]-4-oxo-4H-thiazol-5-ylidenemethyl}-2-methoxy-phenoxy)-3-trifluoromethyl-benzonitrile], the EC50 was determined as 19 nM.

`N#Cc1ccc(Oc2ccc(/C=C3\SC(NCCN4CCNC(=O)C4)=NC3=O)cc2F)c(C(F)(F)F)c1` [Example 99, 4-(2-Fluoro-4-{4-oxo-2-[2-(3-oxo-piperazin-1-yl)-ethylamino]-4H-thiazol-5-ylidenemethyl}-phenoxy)-3-trifluoromethyl-benzonitrile] had an EC50 of 18 nM.

`COc1cc(/C=C2\SC(NCC(=O)O)=NC2=O)ccc1Oc1ccc(C#N)cc1C(F)(F)F` [Example 76, {5-[4-(4-Cyano-2-trifluoromethyl-phenoxy)-3-methoxy-benzylidene]-4-oxo-4,5-dihydro-thiazol-2-ylamino}-acetic acid] had an EC50 of 16 nM.

As to `CCS(=O)(=O)N1CCN(C2=NC(=O)/C(=C/c3ccc(Oc4ccc(C#N)cc4C(F)(F)F)c(OC)c3)S2)CC1` [Example 38, 4-{4-[2-(4-Ethanesulfonyl-piperazin-1-yl)-4-oxo-4H-thiazol-5-ylidenemethyl]-2-methoxy-phenoxy}-3-trifluoromethyl-benzonitrile], the EC50 came to 9 nM.

The compound `COc1cc(/C=C2\SC(N3CC[C@@H](F)C3)=NC2=O)ccc1Oc1ccc(C#N)cc1C(F)(F)F` [Example 90, 4-{4-[2-(3-Fluoro-pyrrolidin-1-yl)-4-oxo-4H-thiazol-5-ylidenemethyl]-2-methoxy-phenoxy}-3-trifluoromethyl-benzonitrile] registered an EC50 of 13 nM. This EC50 and that of the compound before are within 1.5-fold of each other.

With `N#Cc1ccc(Oc2ccc(/C=C3\SC(NCCC4CCOCC4)=NC3=O)cc2F)c(C(F)(F)F)c1` [Example 110, 4-(2-Fluoro-4-{4-oxo-2-[2-(tetrahydro-pyran-4-yl)-ethylamino]-4H-thiazol-5-ylidenemethyl}-phenoxy)-3-trifluoromethyl-benzonitrile], the EC50 was 26 nM. This EC50 lies about 2-fold higher than the previous one.
